The source made the active and inactive calls. The calls are words filed in the database; no cut-off is given here.
Columns and labels:
[1] = molecular target: T1, Mannose-6-phosphate isomerase (Saccharomyces cerevisiae, UniProt P29952); assay: Inhibition of Saccharomyces cerevisiae type I phosphomannose isomerase assessed as D-mannose 6-phosphate to D-fructose 6-phosphate isomerization at pH 7.1 by PGI/G6PDH coupled enzyme spectrophotometric assay
T1 sequence (P29952 whole entry): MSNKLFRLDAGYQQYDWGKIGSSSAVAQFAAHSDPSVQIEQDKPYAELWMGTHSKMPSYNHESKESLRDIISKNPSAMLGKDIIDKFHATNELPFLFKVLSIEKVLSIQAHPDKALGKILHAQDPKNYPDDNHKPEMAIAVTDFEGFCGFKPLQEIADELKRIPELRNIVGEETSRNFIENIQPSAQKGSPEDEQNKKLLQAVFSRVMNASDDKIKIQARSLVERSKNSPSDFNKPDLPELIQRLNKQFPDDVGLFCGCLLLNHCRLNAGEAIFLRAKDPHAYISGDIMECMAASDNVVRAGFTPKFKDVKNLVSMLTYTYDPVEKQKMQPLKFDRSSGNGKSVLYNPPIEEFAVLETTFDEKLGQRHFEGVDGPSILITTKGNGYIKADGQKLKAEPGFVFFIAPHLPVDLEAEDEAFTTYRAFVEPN

[2] = molecular target: T2, Mannose-6-phosphate isomerase (Escherichia coli (strain K12), UniProt P00946); assay: Inhibition of Escherichia coli type I phosphomannose isomerase assessed as D-mannose 6-phosphate to D-fructose 6-phosphate isomerization at pH 7.1 by PGI/G6PDH coupled enzyme spectrophotometric assay
T2 sequence (P00946 whole entry): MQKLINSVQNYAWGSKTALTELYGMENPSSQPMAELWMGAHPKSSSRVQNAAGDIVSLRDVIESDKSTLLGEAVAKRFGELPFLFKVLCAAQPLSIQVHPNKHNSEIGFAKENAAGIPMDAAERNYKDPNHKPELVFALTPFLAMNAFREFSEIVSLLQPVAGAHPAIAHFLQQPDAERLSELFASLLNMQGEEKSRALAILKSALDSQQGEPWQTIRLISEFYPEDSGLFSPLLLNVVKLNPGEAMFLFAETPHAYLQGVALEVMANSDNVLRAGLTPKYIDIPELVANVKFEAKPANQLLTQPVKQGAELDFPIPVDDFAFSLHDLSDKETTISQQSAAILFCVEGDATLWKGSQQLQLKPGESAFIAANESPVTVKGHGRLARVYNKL

[3] = molecular target: T3, Mannose-6-phosphate isomerase (Saccharomyces cerevisiae) (UniProt P29952); assay: Competitive inhibition of Saccharomyces cerevisiae type I phosphomannose isomerase assessed as D-mannose 6-phosphate to D-fructose 6-phosphate isomerization at pH 7.1 by PGI/G6PDH coupled enzyme spectrophotometric assay
T3 sequence (whole entry): T1 sequence (P29952 whole entry)

[4] = molecular target: T4, Mannose-6-phosphate isomerase (Escherichia coli (strain K12)) (UniProt P00946); assay: Competitive inhibition of Escherichia coli type I phosphomannose isomerase assessed as D-mannose 6-phosphate to D-fructose 6-phosphate isomerization at pH 7.1 by PGI/G6PDH coupled enzyme spectrophotometric assay
T4 sequence (whole entry): T2 sequence (P00946 whole entry)

Row | Compound | IC50 [1] | IC50 [2] | Ki [1] | inhibition [3] | inhibition [4] | Ki [2]
1 | O=C(NO)[C@@H](O)[C@H](O)[C@H](O)CCP(=O)(O)O.ONO.ONO.ONO | 2200 µM | 370 µM |  |  |  | 
2 | O=C(O)[C@@H](O)[C@H](O)[C@H](O)CP(=O)(O)O |  | > 3000 µM |  |  |  | 

Continued, values first:

Row | IC50 [1] | IC50 [2] | Ki [1] | inhibition [3] | inhibition [4] | Ki [2] | Compound
3 | 900 µM | 4600 µM |  |  |  |  | O=C(O)CC[C@H]1OC(O)[C@@H](O)[C@@H](O)[C@@H]1O (some centres not stated)
4 | 18.1 µM | 199 µM | 10.5 µM | Active | Active | 115 µM | O=C(O)C(C[C@H]1OC(O)[C@@H](O)[C@@H](O)[C@@H]1O)C(=O)O (some centres not stated)
5 |  | > 3000 µM |  |  |  |  | NNC(=O)[C@@H](O)[C@H](O)[C@H](O)CCP(=O)(O)O
